Data reported in patent publication US20190352268A1, “CANNABINOID RECEPTOR MEDIATING COMPOUNDS” (The USA, as represented by the Secretary, Department of …, priority 2015, published 2019).

biological target: CB1 (Mus musculus, UniProt P47746); assay: CB1 radioligand displacement assay in mouse brain membranes; assay type: binding; design: radioligand displacement assay in mouse brain membranes; from tissue; host or cells: mouse brain membranes; settings: not given
Sequence (P47746 whole entry): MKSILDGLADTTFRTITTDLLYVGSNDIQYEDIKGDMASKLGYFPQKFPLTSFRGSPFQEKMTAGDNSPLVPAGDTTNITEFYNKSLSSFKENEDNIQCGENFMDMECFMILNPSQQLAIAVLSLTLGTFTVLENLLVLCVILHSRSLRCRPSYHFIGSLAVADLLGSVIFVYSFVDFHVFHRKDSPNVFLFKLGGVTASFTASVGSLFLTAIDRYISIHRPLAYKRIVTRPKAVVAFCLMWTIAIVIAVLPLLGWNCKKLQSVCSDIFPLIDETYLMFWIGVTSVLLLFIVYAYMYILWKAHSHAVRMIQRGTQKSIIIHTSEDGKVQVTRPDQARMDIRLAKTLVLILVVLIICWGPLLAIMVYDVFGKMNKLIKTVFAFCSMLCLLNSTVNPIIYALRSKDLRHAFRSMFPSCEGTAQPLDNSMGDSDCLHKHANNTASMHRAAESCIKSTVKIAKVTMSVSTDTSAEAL

SMILES	Ki
CC(C)(C)OC(=O)N1CCN(/C(N)=N/C(=N/S(=O)(=O)c2ccc(Cl)cc2)N2CC(c3ccccc3)C(c3ccc(Cl)cc3)=N2)CC1 (stereo not shown) [Compound 59]	387 nM

same assay, conditions: Table 1; read-out: Ki CB1

Ki	SMILES
171 nM	CN(C)/C(N)=N/C(=N/S(=O)(=O)c1ccc(Cl)cc1)N1CC(c2ccccc2)C(c2ccc(Cl)cc2)=N1 (racemic) [Compound 44, rac-N-(amino(dimethylamino)methylene)-3-(4-chlorophenyl)-N-((4-chlorophenyl)sulfonyl)-4-phenyl-4,5-dihydro-1H-pyrazole-1-carboximidamide]
6.5 nM	CC(C)(C)OC(=O)N/C(N)=N/C(=N/S(=O)(=O)c1ccc(Cl)cc1)N1CC(c2ccccc2)C(c2ccc(Cl)cc2)=N1 (stereo not shown) [Compound 41]
193 nM	N/C(=N\C(=N\S(=O)(=O)c1ccc(Cl)cc1)N1CC(c2ccccc2)C(c2ccc(Cl)cc2)=N1)N1CCOCC1 (stereo not shown) [Compound 52]

SMILES	Ki
CC(C)(C)C(N)=NC(=NS(=O)(=O)c1ccc(Cl)cc1)N1CC(c2ccccc2)C(c2ccc(Cl)cc2)=N1 (stereo not shown) [Compound 3]	7 nM

same assay, conditions: Table 2; read-out: Ki CB1

Ki	SMILES
6.5 nM	N/C(=N/C(=N\S(=O)(=O)c1ccc(Cl)cc1)N1CC(c2ccccc2)C(c2ccc(Cl)cc2)=N1)c1ccc(F)cc1 (single isomer, unassigned) [Compound 10E1]
524 nM	N/C(=N/C(=N\S(=O)(=O)c1ccc(Cl)cc1)N1CC(c2ccccc2)C(c2ccc(Cl)cc2)=N1)c1ccc(F)cc1 (single isomer, unassigned) [Compound 10E2]
36 nM	CC(C)(C)C(N)=NC(=NS(=O)(=O)c1ccc(Cl)cc1)N1C[C@H](c2ccccc2)C(c2ccc(Cl)cc2)=N1 [Compound 3E1]
29 nM	CC(C)C(N)=NC(=NS(=O)(=O)c1ccc(Cl)cc1)N1CC(c2ccccc2)C(c2ccc(Cl)cc2)=N1 (stereo not shown) [Compound 5]
29 nM	O=S(=O)(N=C(N=C1CCCCN1)N1CC(c2ccccc2)C(c2ccc(Cl)cc2)=N1)c1ccc(Cl)cc1 (stereo not shown) [Compound 6]
15 nM	NC(=NC(=NS(=O)(=O)c1ccc(Cl)cc1)N1CC(c2ccccc2)C(c2ccc(Cl)cc2)=N1)C12CC3CC(CC(C3)C1)C2 (stereo not shown) [Compound 7]
62 nM	NC(=NC(=NS(=O)(=O)c1ccc(Cl)cc1)N1CC(c2ccccc2)C(c2ccc(Cl)cc2)=N1)c1ccc([N+](=O)[O-])cc1 (stereo not shown) [Compound 9]
72 nM	NC(COc1ccccc1)=NC(=NS(=O)(=O)c1ccc(Cl)cc1)N1CC(c2ccccc2)C(c2ccc(Cl)cc2)=N1 (stereo not shown) [Compound 13]
56 nM	NC(=NC(=NS(=O)(=O)c1ccc(Cl)cc1)N1CC(c2ccccc2)C(c2ccc(Cl)cc2)=N1)c1cccc(Br)c1 (stereo not shown) [Compound 14]
19 nM	NC(=NC(=NS(=O)(=O)c1ccc(Cl)cc1)N1CC(c2ccccc2)C(c2ccc(Cl)cc2)=N1)c1ccccc1F (stereo not shown) [Compound 15]
60 nM	NC(=NC(=NS(=O)(=O)c1ccc(Cl)cc1)N1CC(c2ccccc2)C(c2ccc(Cl)cc2)=N1)c1cccs1 (stereo not shown) [Compound 16]
86 nM	COc1cccc(C(N)=NC(=NS(=O)(=O)c2ccc(Cl)cc2)N2CC(c3ccccc3)C(c3ccc(Cl)cc3)=N2)c1 (stereo not shown) [Compound 17]
7.7 nM	NC(=NC(=NS(=O)(=O)c1ccc(Cl)cc1)N1CC(c2ccccc2)C(c2ccc(Cl)cc2)=N1)c1ccc(F)cc1F (stereo not shown) [Compound 19]
27 nM	NC(=NC(=NS(=O)(=O)c1ccc(Cl)cc1)N1CC(c2ccccc2)C(c2ccc(Cl)cc2)=N1)c1ccc(Br)cc1 (stereo not shown) [Compound 20]
166 nM	CC(C)SC(N)=NC(=NS(=O)(=O)c1ccc(Cl)cc1)N1CC(c2ccccc2)C(c2ccc(Cl)cc2)=N1 (stereo not shown) [Compound 23]
127 nM	NC(=NC(=NS(=O)(=O)c1ccc(Cl)cc1)N1CC(c2ccccc2)C(c2ccc(Cl)cc2)=N1)SCc1ccccc1 (stereo not shown) [Compound 24]
287 nM	NC(=NC(=NS(=O)(=O)c1ccc(Cl)cc1)N1CC(c2ccccc2)C(c2ccc(Cl)cc2)=N1)SCCc1ccccc1 (stereo not shown) [Compound 25]
190 nM	NC(=NC(=NS(=O)(=O)c1ccc(Cl)cc1)N1CC(c2ccccc2)C(c2ccc(Cl)cc2)=N1)SCCCc1ccccc1 (stereo not shown) [Compound 26]
263 nM	C=CCN(CC=C)/C(N)=N/C(=N/S(=O)(=O)c1ccc(Cl)cc1)N1CC(c2ccccc2)C(c2ccc(Cl)cc2)=N1 (stereo not shown) [Compound 35]
535 nM	CCCCN(CC)/C(N)=N/C(=N/S(=O)(=O)c1ccc(Cl)cc1)N1CC(c2ccccc2)C(c2ccc(Cl)cc2)=N1 (stereo not shown) [Compound 36]
138 nM	CCCN(CCC)/C(N)=N/C(=N/S(=O)(=O)c1ccc(Cl)cc1)N1CC(c2ccccc2)C(c2ccc(Cl)cc2)=N1 (stereo not shown) [Compound 37]
49 nM	CCN(CC)/C(N)=N/C(=N/S(=O)(=O)c1ccc(Cl)cc1)N1CC(c2ccccc2)C(c2ccc(Cl)cc2)=N1 (stereo not shown) [Compound 38]
425 nM	COCCN(CCOC)/C(N)=N/C(=N/S(=O)(=O)c1ccc(Cl)cc1)N1CC(c2ccccc2)C(c2ccc(Cl)cc2)=N1 (stereo not shown) [Compound 39]
848 nM	COCCN/C(N)=N/C(=N/S(=O)(=O)c1ccc(Cl)cc1)N1CC(c2ccccc2)C(c2ccc(Cl)cc2)=N1 (stereo not shown) [Compound 40]
6.5 nM	CC(C)(C)OC(=O)N/C(N)=N/C(=N/S(=O)(=O)c1ccc(Cl)cc1)N1CC(c2ccccc2)C(c2ccc(Cl)cc2)=N1 (stereo not shown) [Compound 41]

Ki	SMILES
23 nM	CON(C)/C(N)=N/C(=N/S(=O)(=O)c1ccc(Cl)cc1)N1CC(c2ccccc2)C(c2ccc(Cl)cc2)=N1 (stereo not shown) [Compound 42]
908 nM	COCCN(C)/C(N)=N/C(=N/S(=O)(=O)c1ccc(Cl)cc1)N1CC(c2ccccc2)C(c2ccc(Cl)cc2)=N1 (stereo not shown) [Compound 43]
49 nM	CC(C)(C)N/C(N)=N/C(=N/S(=O)(=O)c1ccc(Cl)cc1)N1CC(c2ccccc2)C(c2ccc(Cl)cc2)=N1 (stereo not shown) [Compound 46]
516 nM	CC(C)N/C(N)=N/C(=N/S(=O)(=O)c1ccc(Cl)cc1)N1CC(c2ccccc2)C(c2ccc(Cl)cc2)=N1 (stereo not shown) [Compound 47]
147 nM	CN(Cc1cccnc1)C(N)=NC(=NS(=O)(=O)c1ccc(Cl)cc1)N1CC(c2ccccc2)C(c2ccc(Cl)cc2)=N1 (stereo not shown) [Compound 48]
343 nM	CN(Cc1ccccc1)/C(N)=N/C(=N/S(=O)(=O)c1ccc(Cl)cc1)N1CC(c2ccccc2)C(c2ccc(Cl)cc2)=N1 (stereo not shown) [Compound 49]
505 nM	N/C(=N\C(=N\S(=O)(=O)c1ccc(Cl)cc1)N1CC(c2ccccc2)C(c2ccc(Cl)cc2)=N1)NCc1ccccc1 (stereo not shown) [Compound 50]
931 nM	N/C(=N\C(=N\S(=O)(=O)c1ccc(Cl)cc1)N1CC(c2ccccc2)C(c2ccc(Cl)cc2)=N1)NCCc1ccccc1 (stereo not shown) [Compound 51]
193 nM	N/C(=N\C(=N\S(=O)(=O)c1ccc(Cl)cc1)N1CC(c2ccccc2)C(c2ccc(Cl)cc2)=N1)N1CCOCC1 (stereo not shown) [Compound 52]
276 nM	N/C(=N\C(=N\S(=O)(=O)c1ccc(Cl)cc1)N1CC(c2ccccc2)C(c2ccc(Cl)cc2)=N1)N1CCCCC1 (stereo not shown) [Compound 53]
309 nM	CN1CCN(/C(N)=N/C(=N/S(=O)(=O)c2ccc(Cl)cc2)N2CC(c3ccccc3)C(c3ccc(Cl)cc3)=N2)CC1 (stereo not shown) [Compound 54]
459 nM	N/C(=N\C(=N\S(=O)(=O)c1ccc(Cl)cc1)N1CC(c2ccccc2)C(c2ccc(Cl)cc2)=N1)NC1CCCC1 (stereo not shown) [Compound 56]
419 nM	N/C(=N\C(=N\S(=O)(=O)c1ccc(Cl)cc1)N1CC(c2ccccc2)C(c2ccc(Cl)cc2)=N1)NC1CCCCC1 (stereo not shown) [Compound 57]
585 nM	N/C(=N\C(=N\S(=O)(=O)c1ccc(Cl)cc1)N1CC(c2ccccc2)C(c2ccc(Cl)cc2)=N1)NCCc1c[nH]c2ccccc12 (stereo not shown) [Compound 58]
443 nM	COC(CN/C(N)=N/C(=N/S(=O)(=O)c1ccc(Cl)cc1)N1CC(c2ccccc2)C(c2ccc(Cl)cc2)=N1)OC (stereo not shown) [Compound 60]
203 nM	CN(CCC#N)/C(N)=N/C(=N/S(=O)(=O)c1ccc(Cl)cc1)N1CC(c2ccccc2)C(c2ccc(Cl)cc2)=N1 (stereo not shown) [Compound 61]
> 1000 nM	NC(=NC(=NS(=O)(=O)c1ccc(Cl)cc1)N1CC(c2ccccc2)C(c2ccc(Cl)cc2)=N1)NCC12CC3CC(CC(C3)C1)C2 (stereo not shown) [Compound 62]
11 nM	N/C(=N\C(=N\S(=O)(=O)c1ccc(Cl)cc1)N1CC(c2ccccc2)C(c2ccc(Cl)cc2)=N1)n1cccn1 (stereo not shown) [Compound 63]
> 1000 nM	NC(=NC(=NS(=O)(=O)c1ccc(Cl)cc1)N1CC(c2ccccc2)C(c2ccc(Cl)cc2)=N1)NC12CC3CC(CC(C3)C1)C2 (stereo not shown) [Compound 64]
9 nM	CC(=O)N/C(N)=N/C(=N/S(=O)(=O)c1ccc(Cl)cc1)N1CC(c2ccccc2)C(c2ccc(Cl)cc2)=N1 (stereo not shown) [Compound 65]
112 nM	CC(C)(N/C(N)=N/C(=N/S(=O)(=O)c1ccc(Cl)cc1)N1CC(c2ccccc2)C(c2ccc(Cl)cc2)=N1)c1ccccc1 (stereo not shown) [Compound 66]
443 nM	COC(CN(C)C(N)=NC(=NS(=O)(=O)c1ccc(Cl)cc1)N1CC(c2ccccc2)C(c2ccc(Cl)cc2)=N1)OC (stereo not shown) [Compound 68]
10 nM	Cc1cc(C)n(C(N)=NC(=NS(=O)(=O)c2ccc(Cl)cc2)N2CC(c3ccccc3)C(c3ccc(Cl)cc3)=N2)n1 (stereo not shown) [Compound 69]
9 nM	NC(=NC(=NS(=O)(=O)c1ccc(C(F)(F)F)cc1)N1CC(c2ccccc2)C(c2ccc(Cl)cc2)=N1)c1ccc(F)cc1 (stereo not shown) [Compound 79]

SMILES	Ki
CC(C)(C)C(N)=NC(=NS(=O)(=O)c1ccc(Cl)cc1)N1CC(c2ccccc2)C(c2ccc(Cl)cc2)=N1 (stereo not shown) [Compound 3]	7 nM
NC(=NC(=NS(=O)(=O)c1ccc(Cl)cc1)N1CC(c2ccccc2)C(c2ccc(Cl)cc2)=N1)c1ccc(F)cc1 (stereo not shown) [Compound 10]	7.9 nM
CC(N)=NC(=NS(=O)(=O)c1ccc(F)cc1)N1CC(c2ccccc2)C(c2ccc(Cl)cc2)=N1 (stereo not shown) [Compound 27]	60 nM
CC(N)=NC(=NS(=O)(=O)c1ccc(Br)cc1)N1CC(c2ccccc2)C(c2ccc(Cl)cc2)=N1 (stereo not shown) [Compound 28]	18 nM
CC(N)=NC(=NS(=O)(=O)c1ccc(I)cc1)N1CC(c2ccccc2)C(c2ccc(Cl)cc2)=N1 (stereo not shown) [Compound 29]	10 nM
CC(N)=NC(=NS(=O)(=O)c1ccccc1)N1CC(c2ccccc2)C(c2ccc(Cl)cc2)=N1 (stereo not shown) [Compound 30]	114 nM
CC(N)=NC(=NS(=O)(=O)c1ccc(C)cc1)N1CC(c2ccccc2)C(c2ccc(Cl)cc2)=N1 (stereo not shown) [Compound 31]	87 nM
COc1ccc(S(=O)(=O)N=C(N=C(C)N)N2CC(c3ccccc3)C(c3ccc(Cl)cc3)=N2)cc1 (stereo not shown) [Compound 32]	182 nM
CC(N)=NC(=NS(=O)(=O)c1ccc2ccccc2c1)N1CC(c2ccccc2)C(c2ccc(Cl)cc2)=N1 (stereo not shown) [Compound 33]	8 nM
CN(CC(C)(C)C)C(N)=NC(=NS(=O)(=O)c1ccc(Cl)cc1)N1CC(c2ccccc2)C(c2ccc(Cl)cc2)=N1 (stereo not shown) [Compound 67]	2390 nM
